Reference: the supplement of paper PMC10307832

Legend:
Test in all cases: relative viability (nuclei count vs DMSO), 5 days (fraction); higher = more cells survive
[1] = compound: CC[C@H](CO)Nc1nc(NCc2ccccc2)c2ncn(C(C)C)c2n1 [Seliciclib] + Cc1cc(Nc2cc(N3CCN(C)CC3)nc(Sc3ccc(NC(=O)C4CC4)cc3)n2)n[nH]1 [Tozasertib] (partner 0.1 µM)
Method in brief: (§1)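 A single step with final 0.05% Triton X-100, 1% formaldehyde and 1 ug/ml Hoechst fixed the cells and stained nuclei 5 days after treatment. Lung cancer cell lines in 1536-well plates had been treated by pin tool the day after seeding with one drug alone or a fixed anchor-drug dose plus five library-drug doses (not always all listed) in √10 steps, and nuclei were counted on 4× images. Relative viability is the ratio of nuclei in treated wells to nuclei in vehicle wells, taken as the median of duplicate plates.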

[2] = compound: CC[C@H](CO)Nc1nc(NCc2ccccc2)c2ncn(C(C)C)c2n1 [Seliciclib] + Nc1ncn([C@H]2C[C@H](O)[C@@H](CO)O2)c(=O)n1 [Decitabine] (partner 2 µM)
Method in brief: as §1

[3] = compound: CC[C@H](CO)Nc1nc(NCc2ccccc2)c2ncn(C(C)C)c2n1 [Seliciclib] + NC(=O)Nc1cc(-c2cccc(F)c2)sc1C(=O)N[C@H]1CCCNC1 [AZD7762] (partner 0.2 µM)
Method in brief: as §1

[4] = compound: CC[C@H](CO)Nc1nc(NCc2ccccc2)c2ncn(C(C)C)c2n1 [Seliciclib] + CC(C)C[C@H](NC(=O)[C@H](Cc1ccccc1)NC(=O)c1cnccn1)B(O)O [Bortezomib] (partner 0.002 µM)
Method in brief: as §1

## PC-3 [JPC-3]
[1]; first compound 0.08 µM
  relative viability: 0.883
[1]; first compound 0.253 µM
  relative viability: 0.837
[1]; first compound 0.8 µM
  relative viability: 0.871
[1]; first compound 2.53 µM
  relative viability: 0.88
[1]; first compound 8 µM
  relative viability: 0.708
[2]; first compound 0.08 µM
  relative viability: 0.819
[2]; first compound 0.253 µM
  relative viability: 0.883
[2]; first compound 0.8 µM
  relative viability: 0.906
[2]; first compound 2.53 µM
  relative viability: 0.809
[2]; first compound 8 µM
  relative viability: 0.767
[3]; first compound 0.08 µM
  relative viability: 0.994
[3]; first compound 0.253 µM
  relative viability: 1
[3]; first compound 0.8 µM
  relative viability: 0.77
[3]; first compound 2.53 µM
  relative viability: 0.617
[3]; first compound 8 µM
  relative viability: 0.718
[4]; first compound 0.08 µM
  relative viability: 0.895
[4]; first compound 0.253 µM
  relative viability: 0.911
[4]; first compound 0.8 µM
  relative viability: 0.738
[4]; first compound 2.53 µM
  relative viability: 0.695
[4]; first compound 8 µM
  relative viability: 0.742

## NCI-H1651
[1]; first compound 0.08 µM
  relative viability: 0.664
[1]; first compound 0.253 µM
  relative viability: 0.623
[1]; first compound 0.8 µM
  relative viability: 0.652
[1]; first compound 2.53 µM
  relative viability: 0.778
[1]; first compound 8 µM
  relative viability: 0.542
[2]; first compound 0.08 µM
  relative viability: 0.553
[2]; first compound 0.253 µM
  relative viability: 0.6
[2]; first compound 0.8 µM
  relative viability: 0.65
[2]; first compound 2.53 µM
  relative viability: 0.51
[2]; first compound 8 µM
  relative viability: 0.592
[3]; first compound 0.08 µM
  relative viability: 0.474
[3]; first compound 0.253 µM
  relative viability: 0.464
[3]; first compound 0.8 µM
  relative viability: 0.488
[3]; first compound 2.53 µM
  relative viability: 0.504
[3]; first compound 8 µM
  relative viability: 0.673
[4]; first compound 0.08 µM
  relative viability: 1
[4]; first compound 0.253 µM
  relative viability: 0.925
[4]; first compound 0.8 µM
  relative viability: 0.897
[4]; first compound 2.53 µM
  relative viability: 0.836
[4]; first compound 8 µM
  relative viability: 0.947

## NCI-H2087
[1]; first compound 0.08 µM
  relative viability: 0.252
[1]; first compound 0.253 µM
  relative viability: 0.234
[1]; first compound 0.8 µM
  relative viability: 0.242
[1]; first compound 2.53 µM
  relative viability: 0.231
[1]; first compound 8 µM
  relative viability: 0.192
[2]; first compound 0.08 µM
  relative viability: 0.284
[2]; first compound 0.253 µM
  relative viability: 0.313
[2]; first compound 0.8 µM
  relative viability: 0.247
[2]; first compound 2.53 µM
  relative viability: 0.227
[2]; first compound 8 µM
  relative viability: 0.221
[3]; first compound 0.08 µM
  relative viability: 1.28
[3]; first compound 0.253 µM
  relative viability: 1.46
[3]; first compound 0.8 µM
  relative viability: 1.33
[3]; first compound 2.53 µM
  relative viability: 1.24
[3]; first compound 8 µM
  relative viability: 1.11
[4]; first compound 0.08 µM
  relative viability: 0.73
[4]; first compound 0.253 µM
  relative viability: 0.792
[4]; first compound 0.8 µM
  relative viability: 0.719
[4]; first compound 2.53 µM
  relative viability: 0.752
[4]; first compound 8 µM
  relative viability: 0.661
